Assays:
[1] = tested on: Calf thymus deoxyribonucleic acid; experiment: DNA absorption titration (intrinsic DNA-binding constant); conditions: [Ru] = 10 µM, 0.05 M Tris/HCl pH 7.4, 37 °C
Experimental: Calf thymus deoxyribonucleic acid was purchased from Sigma-Aldrich and its stock solution was prepared by dissolving of solid DNA in water. DNA concentrations per nucleotide were determined by absorption spectroscopy using the molar absorption coefficient of 6,600 M^−1cm^−1 at the wavelength of 260 nm. DNA-binding experiments were performed in 0.05 M Tris/HCl buffer (pH 7.4) at 37 °C. […] Ruthenium–DNA solutions were allowed to incubate for 5 min before the spectra were recorded. The intrinsic DNA-binding constant was calculated from the following Eq. [4]. DNA/εa-εf=DNA/εa-εf+1/Kbεb-εf, where [DNA] is the total DNA concentration in nucleotides, ε a, ε b, ε f are the apparent absorption coefficients of A/[ruthenium complex] of the MLCT absorption band at a given DNA concentration, fully bound and free ruthenium complex, respectively, K b is binding constant.
To be submitted to Journal of Biological Inorganic Chemistry intercalation.[4] The hypochromism and batochromism at MLCT bands is found usually higher for other reported polypyridyl DNA intercalative Ru(II) complexes.[5-8] To assess this interaction the intrinsic DNA-binding constant was calculated from the following equation […]
where [DNA] is the total DNA concentration in nucleotides, εa, εb, εf are the apparent absorption coefficients of A/[ruthenium complex] of the MLCT absorption band at a given DNA concentration, fully bound and free ruthenium complex, respectively, Kb is binding […]
isosbestic points and gradual decrease of the absorption of MLCT bands. This observation […]
rather week interaction with DNA it is not further discussed.
Fig. S3. Changes in absorption spectra of [Ru(dip)2(CH3bpy-DCU)]2+ and [Ru(dip)2(CH3bpy-CH3)]2+ after addition of ct-DNA. Experimental conditions: [Ru] = 10 μM; Tris/HCl pH 7.4, T = 37°C, A. [DNA] = 0 – 2 μM; B. [DNA] = 5 – 120 μM. […]

[2] = tested on: FVB mouse lung microvascular endothelial cells (MLuMEC FVB); experiment: Alamar Blue cell viability, MLuMEC; assay type: cell-based; conditions: 24 h
Experimental: FVB mouse lung microvascular endothelial cells (MLuMEC FVB) and murine endothelial cells isolated from aorta-gonad-mesonephros (AGM) region of 10.5 dpc embryos (MAgEC 10.5) were cultured in OptiMEM with Glutamax-I (Gibco Invitrogen) supplemented with 2% fetal bovine serum (FBS), 0.4% gentamycin and 0.2% fungizone. […]
(§1) 10% FBS, 1% peniciline and streptomycin and 0.2% fungizone. Cells were routinely cultured at 37 °C in a humidified incubator in 5% CO2 atmosphere.
(§2) Cell viability was measured using Alamar Blue assay. Cells were seeded on 96 wells plate with density of 1 × 10^4 cells per cm2 and cultured for 1 day. Then cells were incubated with various concentrations of compounds in medium with or without 2% FBS for 24 and 48 h under normoxic and hypoxic conditions in the darkness. Next cells were washed with PBS and incubated in Alamar Blue solution for 3 h. The cell viability was quantified at 605 nm using 560 nm excitation light (VICTOR 3V multilabel plate reader PerkinElmer or Tecan Infinite200 Reader). Experiments were performed in triplicates and each experiment was performed at least three times to get the mean values ± standard derivation. The viability was calculated with regard to the untreated cells control. The IC50 values were determined using Hill equation (Origin 9.0). […]

[3] = molecular target: human serum albumin (HSA) (Homo sapiens, UniProt P02768); experiment: HSA fluorescence quenching (protein-binding experiments); conditions: [HSA] = 1 μM, [Ru] 0–10 μM, PBS pH 7.4, 37 °C
human serum albumin (HSA), sequence (P02768 25-609): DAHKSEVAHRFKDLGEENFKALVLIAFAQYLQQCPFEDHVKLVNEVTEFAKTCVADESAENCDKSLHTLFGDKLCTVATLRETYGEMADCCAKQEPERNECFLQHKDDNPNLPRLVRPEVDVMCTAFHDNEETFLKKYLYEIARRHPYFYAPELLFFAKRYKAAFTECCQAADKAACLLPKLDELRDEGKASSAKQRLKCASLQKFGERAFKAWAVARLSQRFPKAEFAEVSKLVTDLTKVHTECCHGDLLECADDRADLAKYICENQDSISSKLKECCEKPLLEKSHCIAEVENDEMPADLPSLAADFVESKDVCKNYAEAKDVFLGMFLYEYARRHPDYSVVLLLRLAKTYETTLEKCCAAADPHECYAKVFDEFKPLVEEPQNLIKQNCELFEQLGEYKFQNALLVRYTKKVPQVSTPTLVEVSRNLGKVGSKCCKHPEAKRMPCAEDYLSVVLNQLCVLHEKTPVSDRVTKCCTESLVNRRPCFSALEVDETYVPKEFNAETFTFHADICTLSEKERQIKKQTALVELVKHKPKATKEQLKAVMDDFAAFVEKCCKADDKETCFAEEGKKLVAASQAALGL
Experimental: The protein stock solution was prepared by dissolving human serum albumin (HSA) in water and its concentration was determined spectrophotometrically from the molar absorptivity of 4.4 × 10^4 cm^−1 M^−1 at 280 nm. The emission spectra were recorded between 305 and 500 nm upon excitation at 295 nm resulting in selective excitation of tryptophan residue of HSA. The average of three scans was subjected to smoothing and the fluorescence intensities were corrected due to dilution effects. Protein-binding experiments were conducted by measuring fluorescence spectra of protein solution (1 μM) in the presence of different amounts of ruthenium compounds (0–10 μM) in PBS buffer pH 7.4 at 37 °C. Ru–protein solutions were allowed to incubate for 5 min before the emission spectra were recorded. The quantum yield and lifetime of luminescence for ruthenium complexes in the present of HSA (1 μM) was measured using the same procedure as described for ruthenium complexes alone (the HSA/Ru-complex ratio is given in the figure caption). […]
When molecules are bound to HSA, the change in fluorescence of HSA (Trp214) is induced ether by quenching by binding of molecules in close proximity of the residue or by conformational change of protein caused by the binding or other interactions. Albumin […]
polypyridyl complexes. The contribution to the observed emission from ruthenium complex is marginal. The Stern-Volmer equation has been employed for quantitative analysis of the […]
where F0 and F are the fluorescence intensities of HSA in the absence and the presence of quencher (Q, Ru complex), respectively; kq is the bimolecular quenching constant; τ0 is the average lifetime of the HSA in the absence of quencher (7 × 10-9 s), [Q] is the concentration of quencher, KSV is the Stern–Volmer constant. Since ruthenium complexes both absorb light at the excitation and the emission wavelengths in order to correlate the inner filter effect the following equation was used: where Fcor and F are the corrected/uncorrected fluorescence intensities of HSA, Aem and Aex are the absorbance value of the solution at the emission and the excitation wavelength […]
quenching involving some type of binding interaction between HSA and ruthenium complexes. In this case the Stern-Volmer constant can be consider as an association constant for formation of HSA-Ru-complexes adducts. […]
(also on this page, place not known: nm , Stern -Volmer ][1][1 0 0 QKQkF SVq ·+=·+= τ 10 -9 [ Q] Stern –Volmer es 210 exem AA cor FF + ·= F -binding ct -DNA ba nds complex w ith DNA)

[4] = tested on: Human lung adenocarcinoma epithelial cell line (A549); experiment: Alamar Blue cell viability, A549; assay type: cell-based; conditions: A549, 24 h
Experimental: as §1, §2

Compound | K b, binding constant for formation of DNA-ruthenium(II) polypyridyl complex adducts [1] | IC50 ([2]; with serum (2%)) [µM] | IC50 ([2]; without serum) [µM] | K a, association constant for formation of HSA-ruthenium(II) polypyridyl complex adducts [3] | IC50 ([4]; with serum (2%)) [µM] | IC50 ([4]; without serum) [µM]
[Ru+2].c1ccc(-c2ccccn2)nc1.c1ccc(-c2ccnc3c2ccc2c(-c4ccccc4)ccnc23)cc1.c1ccc(-c2ccnc3c2ccc2c(-c4ccccc4)ccnc23)cc1 [[Ru(dip)2(bpy)]^2+] | 0.82 ± 0.01 ×10^5 M^−1 | 11.7 ± 1.6 | 4.7 ± 0.41 | 0.78 ± 0.02 ×10^5 M^−1 | 27.7 ± 1.2 | 13.5 ± 5.3
Cc1ccnc(-c2cc(C(=O)[O-])ccn2)c1.[Ru+2].c1ccc(-c2ccnc3c2ccc2c(-c4ccccc4)ccnc23)cc1.c1ccc(-c2ccnc3c2ccc2c(-c4ccccc4)ccnc23)cc1 [[Ru(dip)2(CH3bpy-COO)]^+] | 1.05 ± 0.15 ×10^5 M^−1 | 18.1 ± 2.19 | 7.74 ± 1.26 | 1.17 ± 0.04 ×10^5 M^−1 | 9.79 ± 0.89 | 6.05 ± 1.87
[Ru(dip)2(1,3-dicyclohexyl-1-[4-carbonyl-(4′-methyl-2,2′-bipyridyl)]-urea)]Cl2 [[Ru(dip)2(CH3bpy-DCU)]^2+] | 0.60 ± 0.02 ×10^5 M^−1 | 5.84 ± 0.24 | 2.28 ± 0.61 | 0.98 ± 0.03 ×10^5 M^−1 | 7.22 ± 0.34 | 5.43 ± 0.11
Cc1ccnc(-c2cc(C)ccn2)c1.[Ru+2].c1ccc(-c2ccnc3c2ccc2c(-c4ccccc4)ccnc23)cc1.c1ccc(-c2ccnc3c2ccc2c(-c4ccccc4)ccnc23)cc1 [[Ru(dip)2(CH3bpy-CH3)]^2+] | 0.53 ± 0.03 ×10^5 M^−1 | 8.32 ± 0.06 | 3.36 ± 0.35 | 1.24 ± 0.06 ×10^5 M^−1 | 11.6 ± 2.19 | 5.47 ± 0.87
O=[N+]([O-])c1nccn1CCCc1ccnc(-c2ccccn2)c1.[Ru+2].c1ccc(-c2ccnc3c2ccc2c(-c4ccccc4)ccnc23)cc1.c1ccc(-c2ccnc3c2ccc2c(-c4ccccc4)ccnc23)cc1 [[Ru(dip)2(bpy-NitroIm)]^2+] | 0.68 ± 0.01 ×10^5 M^−1 | 10.4 ± 1.31 | 6.08 ± 0.7 | 1.10 ± 0.06 ×10^5 M^−1 | 17.5 ± 5.7 | 11.8 ± 1.2

Source: article PMC4240912, “Multifaceted interplay between lipophilicity, protein interaction and luminescence parameters of non-intercalative ruthenium(II) polypyridyl complexes controlling cellular imaging and cytotoxic properties” (Journal of Biological Inorganic Chemistry, 2014)
